Experimental data from article PMC11676817, “Antiproliferative and Morphological Analysis Triggered by Drugs Contained in the Medicines for Malaria Venture COVID-Box Against Toxoplasma gondii Tachyzoites” (Microorganisms, 2024).
Several values for one entry are separate records, joined by “and”; a condition that tells them apart may be missing. Identical values can stand only once. Like-named read-outs stand apart in the source and are kept apart here.

Key:
[1] = Rat; ref Table S3 supplementary ref 3; cited from earlier work
[2] = tested on: T. gondii tachyzoites; assay: Immunofluorescence microscopy of treated tachyzoites (aberrant cell division, rhoptry morphology); conditions: 24 h; for Effect on tachyzoite morphology and cell division (fluorescence microscopy): 125 nM; for Vacuoles with aberrant parasites: […] (250 nM)
Description: Rabbit anti-IMC1 (1:1000) and anti-ARO (1:1000) (kindly provided by Dr. Dominique Soldati, Universite de Geneve, Switzerland) were used to label the mother cell and daughter cell pellicles throughout the endodyogeny process and rhoptries, respectively. Mouse anti-SAG1 (1:200; kindly donated by Dr. Tiago Mineo, Universidade Federal de Uberlândia) was used to label the parasite plasma membrane. DAPI (2 µg/mL; Sigma-Aldrich, St. Louis, MO, USA) was used to label the DNA. […] After labeling with antibodies, the coverslips were mounted onto slides using Prolong gold (Life Technologies), and samples were examined on a Zeiss Axio Observer Z1 microscope (Baden-Württemberg, Germany) or Olympus BX60 microscope (Shinjuku City, Tokyo, Japan).

[3] = tested on: T. gondii tachyzoites; assay: Transmission electron microscopy of treated tachyzoites; type: cell-based, Toxoplasma gondii
Description: NHDF cultures infected with T. gondii were treated with compounds and fixed with 2.5% glutaraldehyde (EM Grade—Ted Pella Inc., Redding, CA, USA) in 0.1 M sodium cacodylate buffer pH 7.4 (Ted Pella Inc.). Cells were post-fixed with 1% osmium tetroxide, 1.25% potassium ferrocyanide, and 5 mM CaCl2, in 0.1 M sodium cacodylate buffer (pH 7.4). The sample fixation and processing for microscopy were performed as previously described. Samples were dehydrated in alcohol solutions of increasing concentrations (35–100%) and embedded in epoxy resin (Polybed 812, Polysciences). Ultrathin sections were collected in copper grids 300 mesh (Ted Pella Inc.), stained with uranyl acetate and lead citrate, and then observed in a Fei TecNai G2 120 kV Spirit Electron Microscope (FEI Company, Eindhoven, The Netherlands).

[4] = Rat, cited from earlier work; for Cmax: read-out: Plasma concentration (Cmax)
[5] = tested on: Toxoplasma gondii tachyzoites of the RH strain; assay: microbe, parasite or virus in culture; type: cell-based; conditions: for activity at […]: 250 nM; for activity at 0.5 µM: 500 nM
[6] = cited from earlier work
[7] = tested on: T. gondii tachyzoites; conditions: read-out: IC50 against T. gondii, cited from earlier work
[8] = tested on: Toxoplasma gondii tachyzoites of the RH strain; conditions: 7 days of treatment
[9] = Cytotoxicity assay in NHDF cells (MTS); conditions: human
[10] = tested on: Toxoplasma gondii tachyzoites of the RH strain; assay: microbe, parasite or virus in culture; conditions: 168 h
[11] = estimated; ref [66]; cited from earlier work
[12] = cited from earlier work; remark: listed apart in the source
[13] = in vitro; conditions: human
[14] = in vivo; cited from earlier work
[15] = tested on: T. gondii; conditions: in vivo administration, murine model of chronic toxoplasmosis; ref [23],[24]; cited from earlier work
[16] = set-up: method as in Table S3 supplementary ref 30; conditions: Rat and Monkey; ref Table S3 supplementary ref 30; cited from earlier work
[17] = set-up: method as in Table S3 supplementary ref 2; conditions: Mouse and Rat; ref Table S3 supplementary ref 2; cited from earlier work
[18] = cited from earlier work; remark: listed apart in the source
[19] = cited from earlier work; remark: listed apart in the source
[20] = published in vivo studies, ref Table S3
[21] = read-out: IC50 (μM) in Tachyzoites, RH strain in NHDF cells, plaque assay
[22] = Toxoplasma gondii, 24 h of treatment, read-out: Proliferation index (%)
[23] = Toxoplasma gondii, 1000 nM, 24 h of treatment, read-out: Proliferation index (%)
[24] = NHDF, read-out: IC50 (μM) in Tachyzoites, RH strain in NHDF cells, plaque assay, 7 days of treatment
[25] = Human, ref Table S3 supplementary refs 1, 4, 8, 11, 13, 15, 17, 18, 19, 23, 31
[26] = read-out: Plasma concentration (Cmax), Human, ref Table S3 supplementary refs 1, 4, 8, 11, 13, 15, 17, 18, 19, 23
[27] = read-out: IC50 against T. gondii proliferation, RH strain, 7 days of treatment

COc1ccc(C[C@H]2NC[C@H](O)[C@H]2OC(C)=O)cc1 [(-)-Anisomycin]
Does it cross the blood-brain barrier or is found in the brain? [1]: Yes
PVs with parasites with aberrant division ([2]; 62.5 nM, IMC1 and DAPI labeling): 22.5%
Effect on tachyzoite morphology and cell division (fluorescence microscopy) [2]: complete arrestment of cell division
Effect on T. gondii ultrastructure (TEM) ([3]; 100 nM, 48 h): alteration of the ER architecture
Plasma concentration (Cmax) ([4]; ref Table S3 supplementary refs 3, 10, 12, 21): 2.75 ng/mL
Proliferation index (%) ([5]; 62.5 nM, 24 h of treatment): 60.56%
Proliferation index (%) ([5]; 125 nM, 24 h of treatment): 22.63%
Brain availability [6, 20]: confirmed
IC50 ([7]; 48 h of treatment, ref Fichera, Bhopale, and Ross (1995) [43]): 10 nM
IC50 [8, 21]: 0.02 µM
IC50 ([8]; read-out: IC50 against T. gondii proliferation, RH strain): ≤ 0.03 µM

CO[C@@H]1[C@H](N(C)C(=O)c2ccccc2)C[C@H]2O[C@]1(C)n1c3ccccc3c3c4c(c5c6ccccc6n2c5c31)C(=O)NC4 [Midostaurin]
Vacuoles with aberrant parasites [2]: more than 80%
Vacuoles with aberrant parasites ([2]; listed as midostaurin): around 80%
Effect on T. gondii ultrastructure (TEM) ([3]; 250 µM as printed, 48 h): drastic effects on the parasite ultrastructure
CC50 at 7 days [9]: 240 ± 20 nM
activity at […] [5, 22]: 23.1%
activity at 0.5 µM [5, 22]: 24.3%
activity at 1 µM [5, 23]: 24.9%
IC50 [10, 24]: 0.08 µM
Oral bioavailability [11]: > 90%
Plasma concentration (Cmax) [12, 25]: 1210 ng/mL
Cmax [12, 26]: 2120 nM

CNC(=O)c1cc(Oc2ccc(NC(=O)Nc3ccc(Cl)c(C(F)(F)F)c3)c(F)c2)ccn1 [Regorafenib]
CC50 at 7 days [13]: 3030 ± 10 nM
selectivity ratio at 7 days [13]: 12
Brain availability ([6]; in vivo): confirmed
IC50 [10, 24]: 0.25 ± 0.04 µM
Does it cross the blood-brain barrier or is found in the brain? [14]: Yes
Cmax ([12]; human, in vivo): 3900 nM
Plasma concentration (Cmax) ([12]; human, in vivo): 1900 ng/mL

Nc1nc(Nc2ccc3c(c2)CC[C@@H](N2CCCC2)CC3)nn1-c1cc2c(nn1)-c1ccccc1CCC2 [Bemcentinib]
CC50 at 7 days [13]: 970 ± 150 nM
selectivity ratio at 7 days [13]: 6
Brain availability ([6]; in vivo): confirmed
IC50 [10, 24]: 0.15 ± 0.03 µM
Does it cross the blood-brain barrier or is found in the brain? [14]: Yes
Cmax ([12]; human, in vivo): 105 nM
Plasma concentration (Cmax) ([12]; human, in vivo): 53 ng/mL

C=CCNc1nc(NCC=C)nc(N2CCN(C(c3ccc(F)cc3)c3ccc(F)cc3)CC2)n1 [Almitrine]
Vacuoles containing tachyzoites with cell division alteration ([2]; 1 µM, IMC1 and DAPI labeling): 23.9%
Effect on T. gondii ultrastructure (TEM) ([3]; 1 µM, 48 h): induced myelin-like structures
inhibition at 1 µM ([5]; Toxoplasma gondii, 1000 nM, 24 h, read-out: Inhibition of parasite proliferation): 55 to 60%
activity at 1 µM [5, 23]: 44.1%
IC50 ([7]; 72 h of treatment, ref [23],[24]): 420 nM and 320 nM
IC50 [8, 21]: 0.33 ± 0.04 µM
Plasma concentration (Cmax) [12, 25]: 286.2 ng/mL
Cmax [12, 26]: 599 nM and ≤ 599 nM
Effect on the number of cysts [15]: reduced the number of cysts

CNC(=O)c1cc(Oc2ccc(NC(=O)Nc3ccc(Cl)c(C(F)(F)F)c3)cc2)ccn1 [Sorafenib]
Plasma concentration (Cmax) ([4]; ref Table S3 supplementary ref 29): 2410 ng/mL
Cmax ([4]; ref Table S3 supplementary refs 21, 29): 5200 nM
Does it cross the blood-brain barrier or is found in the brain? [16]: Yes
Brain availability [6, 20]: confirmed
IC50 [10, 24]: 0.56 ± 0.03 µM
Plasma concentration (Cmax) [12, 25]: 1001.3 ng/mL
Cmax ([12]; read-out: Plasma concentration (Cmax), Human, ref Table S3 supplementary refs 20, 22, 25, 31): 2200 nM

CCN1CCN(Cc2ccc(Nc3ncc(F)c(-c4cc(F)c5nc(C)n(C(C)C)c5c4)n3)nc2)CC1 [Abemaciclib]
Does it cross the blood-brain barrier or is found in the brain? [17]: Yes
Brain availability [6, 20]: confirmed
IC50 [10, 27]: < 0.1 µM
IC50 [10, 24]: 0.09 ± 0.01 µM
Plasma concentration (Cmax) [12, 25]: 492 ng/mL
Cmax [12, 26]: 971 nM

CC[C@@H](C(=O)[C@@H](C)[C@@H](O)[C@H](C)[C@@H]1O[C@@H]([C@@H](CC)C(=O)O)CC[C@@H]1C)[C@H]1O[C@]2(C=C[C@@H](O)[C@]3(CC[C@@](C)([C@H]4CC[C@](O)(CC)[C@H](C)O4)O3)O2)[C@H](C)C[C@@H]1C [Salinomycin]
Plasma concentration (Cmax) ([18]; Mice, ref Table S3 supplementary ref 27): 13.2 ng/mL
Cmax ([18]; read-out: Plasma concentration (Cmax), Mouse/Mice, ref Table S3 supplementary refs 16, 27): 17.6 nM
Effect on tachyzoite morphology and cell division (fluorescence microscopy) [2]: vacuoles containing fragmented parasites
Effect on T. gondii ultrastructure (TEM) ([3]; 125 and […] nM, 24 h): extensive vacuolization process
Does it cross the blood-brain barrier or is found in the brain? ([19]; Mice/Mouse, ref Table S3 supplementary refs 6, 16, 24, 27, 33): Yes
CC50 at 7 days [13]: 1140 ± 170 nM
selectivity ratio at 7 days [13]: 16
Plasma concentration (Cmax) ([4]; ref Table S3 supplementary refs 28, 32): 40 ng/mL
Cmax ([4]; ref Table S3 supplementary refs 3, 10, 12, 28, 32): 53.3 nM
activity at 0.0312 µM ([5]; Toxoplasma gondii, 31.2 nM, 24 h of treatment, read-out: Proliferation index (%)): 79.1%
activity at 0.0625 µM ([5]; Toxoplasma gondii, 62.5 nM, 24 h of treatment, read-out: Proliferation index (%)): 21.9%
activity at 0.125 µM ([5]; Toxoplasma gondii, 125 nM, 24 h of treatment, read-out: Proliferation index (%)): 14.4%
inhibition at […] ([5]; Toxoplasma gondii, […] nM ([…] µM), 24 h, read-out: Inhibition of parasite proliferation): > 90%
activity at […] [5, 22]: 6.38%
Brain availability [6, 20]: confirmed
IC50 [10, 27]: < 0.1 µM
IC50 [10, 24]: 0.07 ± 0.01 µM

Cc1cccc(/C=N/Nc2cc(N3CCOCC3)nc(OCCc3ccccn3)n2)c1 [Apilimod]
Cmax ([18]; mouse, in vivo): 2530 nM
Does it cross the blood-brain barrier or is found in the brain? ([19]; mouse, in vivo): Yes
CC50 at 7 days [13]: 2120 ± 120 nM
selectivity ratio at 7 days [13]: 10
Inhibition of parasite proliferation, in words ([5]; 0.5–1 µM, 24 h): modest inhibition
activity at 0.5 µM [5, 22]: 99.7%
activity at 1 µM [5, 23]: 73.2%
Brain availability ([6]; in vivo): confirmed
IC50 [10, 24]: 0.22 ± 0.06 µM
